Reference: patent US10213428B2, “(4-((3R,4R)-3-methoxytetrahydro-pyran-4-ylamino)piperidin-1-yl)(5-methyl-6-(((2R,6S)-6-(p-tolyl)tetrahydro-2H-pyran-2-yl)methylamino)pyrimidin-4-yl)methanone citrate” (Centrexion Therapeutics Corporation, priority 2015, dated 2019)
“Also recorded” adds a separate entry of the source.

Legend:
[1] = ThermoGravimetry (loss on drying); assay type: physicochemical; conditions: TG
Description: Thermal gravimetry data were collected with a TG instrument from the Q-series of TA Instruments. This method measures weight changes in a material as a function of temperature under a controlled atmosphere.

[2] = Solubility, automated shake flask method with UV quantitation; assay type: physicochemical; conditions: for solubility at 2 h / solubility at 4 h / solubility at 6 h: thermodynamic from solid, room temperature
Procedure: Solubility was determined using an automated shake flask method (at room temperature) and quantitation of the dissolved drug substance was determined by UV-spectroscopy within this automated setup.

[3] = X-ray powder diffraction: crystallinity and polymorphism; assay type: physicochemical; conditions: for indications for polymorphism: several crystallization experiments
Description: X-ray powder diagrams were generated using a STOE-STADI P-diffractometer in transmission mode fitted with a MYTHEN-detector and a Cu-anode as X-ray source with monochromatic CuKα1 radiation (λ=1.54056 Å, 40 kV, 40 mA).

[4] = Oral pharmacokinetics in rat; assay type: in vivo, Wistar(Han) rats; conditions: oral dose 20 μmol/kg of citrate salt 1, mean values
Description: The pharmacokinetics of the test compound following single intravenous (IV) or oral (PO) doses were examined in • female BALB/c mice (average weight: 25 g) • male Wistar(Han) rats (average weight: 260 g) • male and female Göttingen Minipigs (average weight: 24 kg) • male beagle dogs (average weight: 15 kg) All non-rodent species were fasted overnight prior to dosing, while mice and rats had food and water available ad libitum. The p.o. dose of the compound was usually administered as suspension in 0.5% Natrosol or as a 0.5% Natrosol/0.015% Tween 80 suspension. For i.v. dosing purposes, the doses were applied as a solution in 0.9% NaCL, or as a solution containing 9.1% HP-beta Cyclodextrin in water.
Blood was collected by venous sampling and soaking of the blood in EDTA coated tubes. Samples were collected for up to 48 h after administration of the test compound. Plasma was then separated by centrifugation (5 min by approximately 9000 g at 4° C.). For determination of the test compound, plasma was transferred into PCR plates. All samples were stored at approximately −20° C. until bioanalytics. The test compound concentrations in plasma were determined by HPLC MS/MS. The lower limit of quantification was between 0.5 nmol/L and 1 nmol/L.

[5] = Dynamic vapour sorption (sorption isotherms, water uptake); assay type: physicochemical; conditions: for hygroscopic behavior: uptake of water: 25° C., citrate
Description: Sorption isotherms were generated using an IGAsorp water sorption monitor from Hiden Isochema. […] For BR salt form only: Sorption isotherms were registered on a DVS-1 water sorption monitor from Surface Measurement Systems.

[6] = listed as Citrate salt, citrate
[7] = male, Wistar(Han), plasma, 20 umol/kg

In the case of `CO[C@H]1COCC[C@H]1NC1CCN(C(=O)c2ncnc(NC[C@H]3CCC[C@@H](c4ccc(C)cc4)O3)c2C)CC1.O=C(O)CC(O)(CC(=O)O)C(=O)O` [citrate salt 1, (4-((3R,4R)-3-methoxytetrahydro-pyran-4-ylamino)piperidin-1-yl)(5-methyl-6-(((2R,6S)-6-(p-tolyl)tetrahydro-2H-pyran-2-yl)methylamino)pyrimidin-4-yl)methanone citrate], the loss on drying [1] is reported as 1.6%, the solubility at 2 h ([2]; Sörensen buffer, aqueous buffer, Sörensen pH 10, 2 h) is reported as > 1000 µg/mL and the solubility at 4 h ([2]; Sörensen buffer, aqueous buffer, Sörensen pH 10, 4 h) is reported as > 1000 µg/mL. For the same compound, the solubility at 6 h ([2]; Sörensen buffer, aqueous buffer, Sörensen pH 10, 6 h) was > 1000 µg/mL, the “Solubility in aqueous media (in words)” value ([2]; acidic, neutral and basic aqueous media) was “highly soluble” and the solubility at 2 h ([2]; aqueous buffer, 0.1N NaOH, 2 h) was > 1000 µg/mL. For the same compound, the solubility at 4 h ([2]; aqueous buffer, 0.1N NaOH, 4 h) was > 1000 µg/mL, the solubility at 6 h ([2]; aqueous buffer, 0.1N NaOH, 6 h) was > 1000 µg/mL and the solubility at 2 h ([2]; aqueous buffer, KH2PO4-buffer pH 7.4, 2 h) was > 1000 µg/mL. For the same compound, the solubility at 4 h ([2]; aqueous buffer, KH2PO4-buffer pH 7.4, 4 h) was > 1000 µg/mL, the solubility at 6 h ([2]; aqueous buffer, KH2PO4-buffer pH 7.4, 6 h) was > 1000 µg/mL and the solubility at 2 h ([2]; aqueous buffer, McIlvaine buffer pH 2.2, 2 h) was > 1000 µg/mL. For the same compound, the solubility at 4 h ([2]; aqueous buffer, McIlvaine buffer pH 2.2, 4 h) was > 1000 µg/mL, the solubility at 6 h ([2]; aqueous buffer, McIlvaine buffer pH 2.2, 6 h) was > 1000 µg/mL and the solubility at 2 h ([2]; aqueous buffer, McIlvaine buffer pH 3.0, 2 h) was > 1000 µg/mL. For the same compound, the solubility at 4 h ([2]; aqueous buffer, McIlvaine buffer pH 3.0, 4 h) was > 1000 µg/mL, the solubility at 6 h ([2]; aqueous buffer, McIlvaine buffer pH 3.0, 6 h) was > 1000 µg/mL and the solubility at 2 h ([2]; aqueous buffer, McIlvaine buffer pH 4.0, 2 h) was > 1000 µg/mL. The solubility at 4 h ([2]; aqueous buffer, McIlvaine buffer pH 4.0, 4 h) was > 1000 µg/mL, the solubility at 6 h ([2]; aqueous buffer, McIlvaine buffer pH 4.0, 6 h) was > 1000 µg/mL and the solubility at 4 h ([2]; aqueous buffer, McIlvaine buffer pH 4.5, 4 h) was > 1000 µg/mL. For the same compound, the solubility at 6 h ([2]; aqueous buffer, McIlvaine buffer pH 4.5, 6 h) was > 1000 µg/mL, the solubility at 2 h ([2]; aqueous buffer, McIlvaine buffer pH 5.0, 2 h) was > 1000 µg/mL and the solubility at 4 h ([2]; aqueous buffer, McIlvaine buffer pH 5.0, 4 h) was > 1000 µg/mL. For the same compound, the solubility at 6 h ([2]; aqueous buffer, McIlvaine buffer pH 5.0, 6 h) was > 1000 µg/mL, the solubility at 2 h ([2]; aqueous buffer, McIlvaine buffer pH 6.0, 2 h) was > 1000 µg/mL and the solubility at 4 h ([2]; aqueous buffer, McIlvaine buffer pH 6.0, 4 h) was > 1000 µg/mL. The solubility at 6 h ([2]; aqueous buffer, McIlvaine buffer pH 6.0, 6 h) was > 1000 µg/mL, the solubility at 2 h ([2]; aqueous buffer, McIlvaine buffer pH 6.8, 2 h) was > 1000 µg/mL and the solubility at 4 h ([2]; aqueous buffer, McIlvaine buffer pH 6.8, 4 h) was > 1000 µg/mL. The solubility at 6 h ([2]; aqueous buffer, McIlvaine buffer pH 6.8, 6 h) was > 1000 µg/mL, the solubility at 2 h ([2]; aqueous buffer, McIlvaine buffer pH 7.4, 2 h) was > 1000 µg/mL and the solubility at 4 h ([2]; aqueous buffer, McIlvaine buffer pH 7.4, 4 h) was > 1000 µg/mL. For the same compound, the solubility at 6 h ([2]; aqueous buffer, McIlvaine buffer pH 7.4, 6 h) was > 1000 µg/mL, the solubility at 2 h ([2]; organic solvent or mixture, EtOH, 2 h) was 9200 µg/mL and the solubility at 4 h ([2]; organic solvent or mixture, EtOH, 4 h) was 9800 µg/mL. The solubility at 6 h ([2]; organic solvent or mixture, EtOH, 6 h) was 10000 µg/mL, the solubility at 2 h ([2]; simulated gastric fluid, 0.01N HCl, 2 h) was > 1000 µg/mL and the solubility at 4 h ([2]; simulated gastric fluid, 0.01N HCl, 4 h) was > 1000 µg/mL. For the same compound, the solubility at 6 h ([2]; simulated gastric fluid, 0.01N HCl, 6 h) was > 1000 µg/mL, the solubility at 2 h ([2]; simulated gastric fluid, 0.1N HCl, 2 h) was > 1000 µg/mL and the solubility at 4 h ([2]; simulated gastric fluid, 0.1N HCl, 4 h) was > 1000 µg/mL. For the same compound, the solubility at 6 h ([2]; simulated gastric fluid, 0.1N HCl, 6 h) was > 1000 µg/mL, the solubility at 2 h ([2]; Water, 2 h) was > 1000 µg/mL and the solubility at 4 h ([2]; Water, 4 h) was > 1000 µg/mL. The solubility at 6 h ([2]; Water, 6 h) was > 1000 µg/mL, the crystallinity ([3]; listed as Citrate salt 1, citrate) was “highly crystalline” and the crystallinity [3, 6] was “high”. The indications for polymorphism [3, 6] was “no”, the indications for polymorphism ([3]; listed as citrate, citrate) was “Only one crystalline form; also recorded: only one polymorphic form” and the AUC(0-inf) [4, 7] was 1.71 µM·h. For the same compound, the Cmax [4, 7] was 454 nM, the Tmax [4, 7] was 1.08 h and the MRTtot [4] was 3.3 h. The “physical state after sorption experiment / at higher relative humidity” value ([5]; higher relative humidity, other salts starting at 60-70% relative humidity) was “still remains as solid material”, the “hygroscopic behavior: uptake of water” value ([5]; up to 80% r.h. (humidity range 10-80%)) was 2.6% and the “hygroscopic behavior: uptake of water” value ([5]; up to 80% r.h. (humidity range 10-80%), listed as Citrate salt) was 2.6%. For the same compound, the “hygroscopic behavior: uptake of water” value ([5]; up to 80% r.h. (humidity range 10-80%), listed as citrate) was 2.6%, the “hygroscopic behavior: uptake of water” value ([5]; up to 90% r.h.) was 3.4% and the “hygroscopic behavior: uptake of water” value ([5]; up to 90% r.h., listed as Citrate salt) was 3.4%.
